Measured values taken from patent publication US20030220386A1, “Delta 1-pyrrolines for use as pesticides” (priority 2000, published 2003).

Columns and labels:
[1] = tested on: larvae of the mustard beetle (Phaedon cochleariae); assay: Phaedon larvae test; conditions: 1000 ppm, cabbage leaves dipped
[2] = tested on: caterpillars of the diamondback moth (Plutella xylostella); assay: Plutella test; assay type: in vivo; conditions: 500 ppm, cabbage leaves dipped
[3] = tested on: Lucilia cuprina larvae; assay: Blowfly larvae test/Development-inhibitory action; assay type: in vivo; conditions: 100 ppm; mortality of the larvae after 48 hours
Description: (§1) 20 mg of active compound are dissolved in one ml of dimethyl sulphoxide. To prepare a suitable formulation, the solution of active compound is diluted with water to the concentration desired in each case.
About 20 Lucilia cuprina larvae are introduced into a test tube which contains about 1 cm^3 of horsemeat and 0.5 ml of the preparation of active compound to be tested. The activity of the preparation of active compound is determined after 48 hours as the mortality of the larvae in %.
The test tubes are then transferred into a beaker whose bottom is covered with sand. After a further 12 days, the test tubes are removed and the pupae and flies are counted. The development-inhibitory action is stated as inhibition of hatching in % (ratio of pupae to flies that have hatched) after 1.5 times the development period of an untreated control.

[4] = logP determination by HPLC (reversed-phase C 18), EEC Directive 79/831 Annex V.A8; assay type: physicochemical; conditions: reversed-phase C18 HPLC column, pH 2.3, 0.1% aqueous phosphoric acid/acetonitrile, 43° C., read-out: log P (pH 2.3)
Description: The logP values given in the tables and preparation examples above are determined in accordance with EEC Directive 79/831 Annex V.A8 by HPLC (High Performance Liquid Chromatography) using a reversed-phase column (C 18). Temperature: 43° C.
In the acidic range, the determination is carried out at pH 2.3 using the mobile phases 0.1% aqueous phosphoric acid and acetonitrile; linear gradient from 10% acetonitrile to 90% acetonitrile.
In the neutral range, the determination is carried out at pH 7.5 using the mobile phases 0.01 molar aqueous phosphate buffer solution and acetonitrile; linear gradient from 10% acetonitrile to 90% acetonitrile.
Calibration is carried out using unbranched alkan-2-ones (of 3 to 16 carbon atoms) with known logP values (determination of the logP values by the retention times using linear interpolation between two successive alkanones).

[5] = tested on: greenhouse red spider mite (Tetranychus urticae); assay: Tetranychus test (OP-resistant/dip treatment); assay type: in vivo; conditions: 100 ppm, bean plants dipped
Description: (§2) After the desired period of time, the activity in % is determined.

[6] = tested on: Amblyomma hebraeum nymphs; assay: Test with polyphagous tick nymphs, dip treatment; assay type: in vivo; conditions: nymphs immersed for 1 minute; after 4 weeks
Description: as §1
10 nymphs which have sucked themselves full are immersed for 1 minute into the preparation of active compound to be tested. The animals are transferred to Petri dishes (Ø 9.5 cm) fitted with filter discs and covered. After 4 weeks of storage in a climatized room, the mortality is determined.
100% means that none of the animals has undergone normal ecdysis. 0% means that all animals have undergone ecdysis.

[7] = tested on: peach aphid (Myzus persicae); assay: Myzus test; assay type: in vivo; conditions: 500 ppm, cabbage leaves dipped
[8] = tested on: cotton aphid (Aphis gossypii); assay: Aphis gossypii test; assay type: in vivo; conditions: 100 ppm, cotton leaves dipped
[9] = tested on: fruit tree spider mite (Panonychus ulmi); assay: Panonychus test; assay type: in vivo; conditions: 200 ppm, plum trees sprayed
Description: as §2

[10] = tested on: larvae of the armyworm (Spodoptera exigua); assay: Spodoptera exigua test; assay type: in vivo; conditions: 500 ppm, cabbage leaves dipped
[11] = tested on: larvae of the armyworm (Spodoptera frugiperda); assay: Spodoptera frugiperda test; assay type: in vivo; conditions: 500 ppm, cabbage leaves dipped

O=S(=O)(Oc1ccc([C@H]2CCC(c3c(F)cccc3F)=N2)cc1)C(F)(F)F [I-2, (2R)-4-[5-(2,6-Difluorophenyl)-3,4-dihydro-2H-pyrrol-2-yl]phenyl trifluoromethanesulphonate]
Kill rate in % after 7 days [1]: 100% | Kill rate in % after 6 days [2]: 100% | Action in % after 48 hours [3]: 100% | chromatographic logP [4]: 3.55 | Kill rate in % after 7 days [5]: 98% | activity (mortality / no normal ecdysis) [6]: good activity | Kill rate in % after 6 days [7]: 98% | Kill rate in % after 6 days [8]: 90% | Kill rate in % after 7 days [9]: 98% | Kill rate in % after 6 days [10]: 100% | Kill rate in % after 6 days [11]: 95%
